From the supplement of paper PMC10307832 come the findings set out here.

Assay in all cases: relative viability (nuclei count vs DMSO), 5 days (fraction); higher = more cells survive
Compound in the test “Sulindac + Trametinib”: CC1=C(CC(=O)O)c2cc(F)ccc2/C1=C\c1ccc([S+](C)[O-])cc1 [Sulindac] + CC(=O)Nc1cccc(-n2c(=O)n(C3CC3)c(=O)c3c(Nc4ccc(I)cc4F)n(C)c(=O)c(C)c32)c1 [Trametinib] (partner 0.02 µM)
An outline of the steps:
(§1)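 Lung cancer cell lines in 1536-well plates got either a single drug or a fixed anchor-drug dose together with five library-drug doses (not always all listed) in √10 steps, by pin tool, on the day after seeding. Nuclei were counted after 5 days, and relative viability is the treated-to-vehicle ratio of nuclei counts. Values are medians of duplicate plates.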

Compound in the test “5-Fluorouracil + AZD7762”: O=c1[nH]cc(F)c(=O)[nH]1 [5-Fluorouracil] + NC(=O)Nc1cc(-c2cccc(F)c2)sc1C(=O)N[C@H]1CCCNC1 [AZD7762] (partner 0.2 µM)
The procedure, abridged:
as §1

Compound in test [1]: CN[C@@H]1C[C@H]2O[C@@](C)([C@@H]1OC)n1c3ccccc3c3c4c(c5c6ccccc6n2c5c31)C(=O)NC4 [Staurosporine] + CC(=O)Nc1cccc(-n2c(=O)n(C3CC3)c(=O)c3c(Nc4ccc(I)cc4F)n(C)c(=O)c(C)c32)c1 [Trametinib] (partner 0.02 µM)
An outline of the steps: as §1

Compound in test [2]: O=c1[nH]cc(F)c(=O)[nH]1 [5-Fluorouracil] + O=C(c1cc(Cc2n[nH]c(=O)c3ccccc23)ccc1F)N1CCN(C(=O)C2CC2)CC1 [Olaparib] (partner 8 µM)
The procedure, abridged:
as §1

As to NCI-H358, the relative viability with Sulindac + Trametinib (first compound 0.08 µM) turned out to be 0.132; in the test with Sulindac + Trametinib (first compound 0.253 µM) it was 0.132; in the test with Sulindac + Trametinib (first compound 0.8 µM), 0.128; with Sulindac + Trametinib (first compound 2.53 µM), 0.114; with Sulindac + Trametinib (first compound 8 µM), 0.14; in the test with 5-Fluorouracil + AZD7762 (first compound 0.02 µM), 0.595. The relative viability with 5-Fluorouracil + AZD7762 (first compound 0.2 µM) was 0.505; with 5-Fluorouracil + AZD7762 (first compound 0.6325 µM), 0.477; with 5-Fluorouracil + AZD7762 (first compound 2 µM) it was 0.293; in test [1] (first compound 0.005 µM), 0.157; in test [1] (first compound 0.01581 µM) it was 0.111; in test [1] (first compound 0.05 µM), 0.0885. Also, the relative viability was 0.0815 in test [1] (first compound 0.1581 µM); 0.0672 in test [1] (first compound 0.5 µM); 0.637 in test [2] (first compound 0.02 µM); 0.686 in test [2] (first compound 0.2 µM); 0.612 in test [2] (first compound 0.6325 µM); 0.39 in test [2] (first compound 2 µM).
Turning to NCI-H441, the relative viability with Sulindac + Trametinib (first compound 0.08 µM) turned out to be 0.423; with Sulindac + Trametinib (first compound 0.253 µM), 0.579; in the test with Sulindac + Trametinib (first compound 0.8 µM) it was 0.331; in the test with Sulindac + Trametinib (first compound 2.53 µM), 0.492; with Sulindac + Trametinib (first compound 8 µM), 0.494; with 5-Fluorouracil + AZD7762 (first compound 0.02 µM), 1.18. The relative viability in the test with 5-Fluorouracil + AZD7762 (first compound 0.2 µM) was 0.857; with 5-Fluorouracil + AZD7762 (first compound 0.6325 µM) it was 0.402; in the test with 5-Fluorouracil + AZD7762 (first compound 2 µM) it was 0.317; in test [1] (first compound 0.005 µM) it was 0.373; in test [1] (first compound 0.01581 µM), 0.186; in test [1] (first compound 0.05 µM), 0.168. For the same cell line, the relative viability was 0.133 in test [1] (first compound 0.1581 µM); 0.0933 in test [1] (first compound 0.5 µM); 0.514 in test [2] (first compound 0.02 µM); 0.438 in test [2] (first compound 0.2 µM); 0.292 in test [2] (first compound 0.6325 µM); 0.269 in test [2] (first compound 2 µM).
Take NCI-H460: the relative viability with Sulindac + Trametinib (first compound 0.08 µM) worked out at 0.178; in the test with Sulindac + Trametinib (first compound 0.253 µM), 0.195; with Sulindac + Trametinib (first compound 0.8 µM), 0.114; in the test with Sulindac + Trametinib (first compound 2.53 µM), 0.366; in the test with Sulindac + Trametinib (first compound 8 µM), 0.132; with 5-Fluorouracil + AZD7762 (first compound 0.02 µM) it was 0.678. Moreover, the relative viability worked out at 0.332 with 5-Fluorouracil + AZD7762 (first compound 0.2 µM); 0.0757 with 5-Fluorouracil + AZD7762 (first compound 0.6325 µM); 0.0672 in the test with 5-Fluorouracil + AZD7762 (first compound 2 µM); 0.0592 in test [1] (first compound 0.005 µM); 0.0305 in test [1] (first compound 0.01581 µM); 0.0206 in test [1] (first compound 0.05 µM). In addition, the relative viability turned out to be 0.0114 in test [1] (first compound 0.1581 µM); 0.0063 in test [1] (first compound 0.5 µM); 0.326 in test [2] (first compound 0.02 µM); 0.347 in test [2] (first compound 0.2 µM); 0.155 in test [2] (first compound 0.6325 µM); 0.105 in test [2] (first compound 2 µM).
With NCI-H522, the relative viability came to 0.628 with Sulindac + Trametinib (first compound 0.08 µM); 0.75 with Sulindac + Trametinib (first compound 0.253 µM); 0.547 in the test with Sulindac + Trametinib (first compound 0.8 µM); 0.747 with Sulindac + Trametinib (first compound 2.53 µM); 0.734 with Sulindac + Trametinib (first compound 8 µM); 0.948 with 5-Fluorouracil + AZD7762 (first compound 0.02 µM). Also, the relative viability with 5-Fluorouracil + AZD7762 (first compound 0.2 µM) is 0.98; in the test with 5-Fluorouracil + AZD7762 (first compound 0.6325 µM) it was 0.755; in the test with 5-Fluorouracil + AZD7762 (first compound 2 µM), 0.916; in test [1] (first compound 0.005 µM) it was 0.667; in test [1] (first compound 0.01581 µM) it was 0.775; in test [1] (first compound 0.05 µM) it was 0.627. For the same cell line, the relative viability in test [1] (first compound 0.1581 µM) came to 0.623; in test [1] (first compound 0.5 µM), 0.59; in test [2] (first compound 0.02 µM) it was 0.547; in test [2] (first compound 0.2 µM), 0.618; in test [2] (first compound 0.6325 µM), 0.647; in test [2] (first compound 2 µM) it was 0.621.
NCI-H596: the relative viability with Sulindac + Trametinib (first compound 0.08 µM) is 0.892; with Sulindac + Trametinib (first compound 0.253 µM), 0.827; in the test with Sulindac + Trametinib (first compound 2.53 µM) it was 0.981; with Sulindac + Trametinib (first compound 8 µM) it was 0.875; with 5-Fluorouracil + AZD7762 (first compound 0.02 µM), 1.23; with 5-Fluorouracil + AZD7762 (first compound 0.2 µM), 0.981. Further, the relative viability with 5-Fluorouracil + AZD7762 (first compound 0.6325 µM) was determined as 0.371; with 5-Fluorouracil + AZD7762 (first compound 2 µM), 0.356; in test [1] (first compound 0.005 µM) it was 0.753; in test [1] (first compound 0.01581 µM), 0.494; in test [1] (first compound 0.05 µM), 0.275; in test [1] (first compound 0.1581 µM) it was 0.184. For the same cell line, the relative viability in test [1] (first compound 0.5 µM) was found to be 0.173; in test [2] (first compound 0.02 µM) it was 0.66; in test [2] (first compound 0.2 µM), 0.694; in test [2] (first compound 0.6325 µM) it was 0.57; in test [2] (first compound 2 µM) it was 0.491.
As for NCI-H647, the relative viability with Sulindac + Trametinib (first compound 0.08 µM) is 0.577; with Sulindac + Trametinib (first compound 0.253 µM), 0.591; with Sulindac + Trametinib (first compound 0.8 µM) it was 0.358; in the test with Sulindac + Trametinib (first compound 2.53 µM), 0.472; in the test with Sulindac + Trametinib (first compound 8 µM), 0.61; with 5-Fluorouracil + AZD7762 (first compound 0.02 µM), 0.448. Moreover, the relative viability was 0.588 with 5-Fluorouracil + AZD7762 (first compound 0.2 µM); 0.402 in the test with 5-Fluorouracil + AZD7762 (first compound 0.6325 µM); 0.333 with 5-Fluorouracil + AZD7762 (first compound 2 µM); 0.295 in test [1] (first compound 0.005 µM); 0.151 in test [1] (first compound 0.01581 µM); 0.0868 in test [1] (first compound 0.05 µM). Further, the relative viability stood at 0.0601 in test [1] (first compound 0.1581 µM); 0.0349 in test [1] (first compound 0.5 µM); 0.577 in test [2] (first compound 0.02 µM); 0.501 in test [2] (first compound 0.2 µM); 0.434 in test [2] (first compound 0.6325 µM); 0.407 in test [2] (first compound 2 µM).
With NCI-H650, the relative viability turned out to be 1.03 in the test with Sulindac + Trametinib (first compound 0.08 µM); 1.03 with Sulindac + Trametinib (first compound 0.253 µM); 0.955 in the test with Sulindac + Trametinib (first compound 0.8 µM); 1 in the test with Sulindac + Trametinib (first compound 2.53 µM); 1.07 with Sulindac + Trametinib (first compound 8 µM); 0.883 with 5-Fluorouracil + AZD7762 (first compound 0.02 µM). Also, the relative viability is 0.464 in the test with 5-Fluorouracil + AZD7762 (first compound 0.2 µM); 0.328 with 5-Fluorouracil + AZD7762 (first compound 0.6325 µM); 0.422 with 5-Fluorouracil + AZD7762 (first compound 2 µM); 1.07 in test [1] (first compound 0.005 µM); 0.383 in test [1] (first compound 0.01581 µM); 0.27 in test [1] (first compound 0.05 µM). Further, the relative viability in test [1] (first compound 0.1581 µM) was found to be 0.222; in test [1] (first compound 0.5 µM) it was 0.151; in test [2] (first compound 0.02 µM), 0.282; in test [2] (first compound 0.2 µM), 0.323; in test [2] (first compound 0.6325 µM) it was 0.26; in test [2] (first compound 2 µM) it was 0.293.
Turning to NCI-H727, the relative viability in the test with Sulindac + Trametinib (first compound 0.08 µM) came out at 0.362; with Sulindac + Trametinib (first compound 0.253 µM), 0.414; with Sulindac + Trametinib (first compound 0.8 µM), 0.378; in the test with Sulindac + Trametinib (first compound 2.53 µM), 0.417; with Sulindac + Trametinib (first compound 8 µM), 0.35; with 5-Fluorouracil + AZD7762 (first compound 0.02 µM), 0.697. Besides, the relative viability with 5-Fluorouracil + AZD7762 (first compound 0.2 µM) came to 0.718; with 5-Fluorouracil + AZD7762 (first compound 0.6325 µM), 0.527; in the test with 5-Fluorouracil + AZD7762 (first compound 2 µM), 0.605; in test [1] (first compound 0.005 µM), 0.349; in test [1] (first compound 0.01581 µM) it was 0.346; in test [1] (first compound 0.05 µM), 0.316. Further, the relative viability was 0.267 in test [1] (first compound 0.1581 µM); 0.257 in test [1] (first compound 0.5 µM); 0.748 in test [2] (first compound 0.02 µM); 0.821 in test [2] (first compound 0.2 µM); 0.747 in test [2] (first compound 0.6325 µM); 0.593 in test [2] (first compound 2 µM).
